Laboratory results published in article PMC10866072, “Design, synthesis, molecular modelling and biological evaluation of novel 6-amino-5-cyano-2-thiopyrimidine derivatives as potent anticancer agents against leukemia and apoptotic inducers” (Journal of Enzyme Inhibition and Medicinal Chemistry, 2024).

How the values were obtained:
NCI/ADR-RES = assay type: cell-based; conditions: Homo sapiens, one dose 10^-5 M, 48 h
SK-MEL-5 = assay type: cell-based; conditions: Homo sapiens, one dose 10^-5 M, 48 h, read-out: % growth
BT-549 = assay type: cell-based; conditions: Homo sapiens, one dose 10^-5 M, 48 h
A498 = assay type: cell-based; conditions: Homo sapiens, one dose 10^-5 M, 48 h
PC-3 = assay type: cell-based; conditions: Homo sapiens, one dose 10^-5 M, 48 h
MDA-MB-435 = assay type: cell-based; conditions: Homo sapiens, one dose 10^-5 M, 48 h, read-out: % growth
SF-539 = assay type: cell-based; conditions: Homo sapiens, one dose 10^-5 M, 48 h
NCI-H522 = assay type: cell-based; conditions: Homo sapiens, one dose 10^-5 M, 48 h
SK-MEL-28 = assay type: cell-based; conditions: Homo sapiens, one dose 10^-5 M, 48 h
OVCAR-3 = assay type: cell-based; conditions: Homo sapiens, one dose 10^-5 M, 48 h
TK-10 = assay type: cell-based; conditions: Homo sapiens, one dose 10^-5 M, 48 h
HCT-15 = assay type: cell-based; conditions: Homo sapiens, one dose 10^-5 M, 48 h, read-out: % growth
RPMI-8226 = assay type: cell-based; conditions: Homo sapiens, one dose 10^-5 M, 48 h
SF-295 = assay type: cell-based; conditions: Homo sapiens, one dose 10^-5 M, 48 h
K-562 = assay type: cell-based; conditions: Homo sapiens, K562, one dose 10^-5 M, 48 h
NCI-H23 = assay type: cell-based; conditions: Homo sapiens, one dose 10^-5 M, 48 h, read-out: % growth
HOP-62 = assay type: cell-based; conditions: Homo sapiens, one dose 10^-5 M, 48 h
IGROV1 = assay type: cell-based; conditions: Homo sapiens, IGROV-1, one dose 10^-5 M, 48 h, read-out: % growth
DU-145 = assay type: cell-based; conditions: Homo sapiens, one dose 10^-5 M, 48 h
786-0 = assay type: cell-based; conditions: Homo sapiens, one dose 10^-5 M, 48 h
SNB-75 = assay type: cell-based; conditions: Homo sapiens, one dose 10^-5 M, 48 h
COLO 205 = assay type: cell-based; conditions: Homo sapiens, one dose 10^-5 M, 48 h
SR = assay type: cell-based; conditions: Homo sapiens, one dose 10^-5 M, 48 h
SF-268 = assay type: cell-based; conditions: Homo sapiens, one dose 10^-5 M, 48 h, read-out: % growth
HL-60(TB) = assay type: cell-based; conditions: Homo sapiens, one dose 10^-5 M, 48 h
HT29 = assay type: cell-based; conditions: Homo sapiens, HT-29, one dose 10^-5 M, 48 h
OVCAR-5 = assay type: cell-based; conditions: Homo sapiens, one dose 10^-5 M, 48 h
SN12C = assay type: cell-based, human; conditions: Homo sapiens, one dose 10^-5 M, 48 h
HCC-2998 = assay type: cell-based; conditions: Homo sapiens, one dose 10^-5 M, 48 h
U251 = assay type: cell-based; conditions: Homo sapiens, U-251, one dose 10^-5 M, 48 h
MDA-MB-231/ATCC = assay type: cell-based; conditions: Homo sapiens, one dose 10^-5 M, 48 h
UACC-62 = assay type: cell-based; conditions: Homo sapiens, one dose 10^-5 M, 48 h
T-47D = assay type: cell-based; conditions: Homo sapiens, T47D, one dose 10^-5 M, 48 h, read-out: % growth
KM12 = assay type: cell-based; conditions: Homo sapiens, one dose 10^-5 M, 48 h
OVCAR-8 = assay type: cell-based; conditions: Homo sapiens, one dose 10^-5 M, 48 h
MOLT-4 = assay type: cell-based; conditions: Homo sapiens, one dose 10^-5 M, 48 h, read-out: % growth
HS 578T = assay type: cell-based; conditions: Homo sapiens; one dose 10^-5 M, 48 h; HS 578T; read-out: % growth
MDA-MB-468 = assay type: cell-based; conditions: Homo sapiens, one dose 10^-5 M, 48 h
MALME-3M = assay type: cell-based; conditions: Homo sapiens, one dose 10^-5 M, 48 h
HOP-92 = assay type: cell-based; conditions: Homo sapiens, one dose 10^-5 M, 48 h
UO-31 = assay type: cell-based; conditions: Homo sapiens, UO-31, 48 h, one dose 10^-5 M, 48 h
CAKI-1 = assay type: cell-based; conditions: Homo sapiens, CAKI-1, 48 h, one dose 10^-5 M, 48 h
LOX IMVI = assay type: cell-based; conditions: Homo sapiens, one dose 10^-5 M, 48 h, read-out: % growth
NCI-H226 = assay type: cell-based; conditions: Homo sapiens, one dose 10^-5 M, 48 h
A549/ATCC = assay type: cell-based; conditions: Homo sapiens, one dose 10^-5 M, 48 h
MCF7 = assay type: cell-based; conditions: Homo sapiens, one dose 10^-5 M, 48 h, read-out: % growth
M14 = assay type: cell-based; conditions: Homo sapiens, one dose 10^-5 M, 48 h
OVCAR-4 = assay type: cell-based; conditions: Homo sapiens, one dose 10^-5 M, 48 h
SK-MEL-2 = assay type: cell-based; conditions: Homo sapiens, one dose 10^-5 M, 48 h
EKVX = assay type: cell-based; conditions: Homo sapiens, one dose 10^-5 M, 48 h
UACC-257 = assay type: cell-based; conditions: Homo sapiens, one dose 10^-5 M, 48 h
CCRF-CEM = assay type: cell-based; conditions: Homo sapiens, one dose 10^-5 M, 48 h
HCT-116 = assay type: cell-based; conditions: Homo sapiens, one dose 10^-5 M, 48 h, read-out: % growth
SNB-19 = assay type: cell-based; conditions: Homo sapiens, one dose 10^-5 M, 48 h, read-out: % growth
NCI-H460 = assay type: cell-based; conditions: Homo sapiens, one dose 10^-5 M, 48 h, read-out: % growth
SW-620 = assay type: cell-based; conditions: Homo sapiens, one dose 10^-5 M, 48 h
ACHN = assay type: cell-based; conditions: Homo sapiens, one dose 10^-5 M, 48 h
[1] = test system: full NCI 60 cell lines panel; conditions: for activity at 10 µM: Homo sapiens, 60 cell, 48 h, read-out: Mean % growth; for activity on all 60 cancer cell lines tested (in words): one dose
SK-OV-3 = assay type: cell-based; conditions: Homo sapiens, one dose 10^-5 M, 48 h

SMILES: CN(C)c1ccc(-c2nc(S)nc(N)c2C#N)cc1 [Compound 1a]
- cell growth percent at 10 µM (NCI/ADR-RES): 91.2%
- activity at 10 µM (SK-MEL-5): 88.7%
- % cell growth at 10 µM (BT-549): 85.4%
- % growth at 10 µM (A498): 131%
- percent cell growth at 10 µM (PC-3): 87.8%
- activity at 10 µM (MDA-MB-435): 103%
- % growth at 10 µM (SF-539): 98.4%
- % growth at 10 µM (NCI-H522): 79.7%
- % cell growth at 10 µM (SK-MEL-28): 103%
- % growth at 10 µM (OVCAR-3): 94.4%
- % cell growth at 10 µM (TK-10): 111%
- activity at 10 µM (HCT-15): 86.4%
- % growth at 10 µM (RPMI-8226): 80.5%
- % cell growth at 10 µM (SF-295): 103%
- % growth at 10 µM (K-562): 89.8%
- activity at 10 µM (NCI-H23): 95%
- % growth at 10 µM (HOP-62): 117%
- activity at 10 µM (IGROV1): 100%
- % growth at 10 µM (DU-145): 102%
- % growth at 10 µM (786-0): 87.9%
- % growth at 10 µM (SNB-75): 107%
- % growth at 10 µM (COLO 205): 123%
- percent cell growth at 10 µM (SR): 83%
- activity at 10 µM (SF-268): 104%
- % growth at 10 µM (HL-60(TB)): 94%
- % growth at 10 µM (HT29): 109%
- percent cell growth at 10 µM (OVCAR-5): 108%
- % growth at 10 µM (SN12C): 90.7%
- % growth at 10 µM (HCC-2998): 105%
- % growth at 10 µM (U251): 90.6%
- % growth at 10 µM (MDA-MB-231/ATCC): 96%
- % growth at 10 µM (UACC-62): 77.2%
- activity at 10 µM (T-47D): 75.6%
- % growth at 10 µM (KM12): 92.3%
- % growth of cells at 10 µM (OVCAR-8): 103%
- activity at 10 µM (MOLT-4): 92.6%
- activity at 10 µM (HS 578T): 100%
- percent cell growth at 10 µM (MDA-MB-468): 60.2%
- % growth at 10 µM (MALME-3M): 106%
- % growth at 10 µM (HOP-92): 94%
- % cell growth at 10 µM (UO-31): 83.8%
- % growth at 10 µM (CAKI-1): 92.4%
- activity at 10 µM (LOX IMVI): 85.6%
- % growth at 10 µM (NCI-H226): 96%
- % growth at 10 µM (A549/ATCC): 96.5%
- activity at 10 µM (MCF7): 80.4%
- % growth at 10 µM (M14): 102%
- % growth at 10 µM (OVCAR-4): 101%
- % growth at 10 µM (SK-MEL-2): 107%
- % cell growth at 10 µM (EKVX): 87.9%
- percent cell growth at 10 µM (UACC-257): 102%
- % cell growth at 10 µM (CCRF-CEM): 90.9%
- activity at 10 µM (HCT-116): 91.9%
- activity at 10 µM (SNB-19): 89.9%
- activity at 10 µM (NCI-H460): 113%
- % growth at 10 µM (SW-620): 113%
- % growth at 10 µM (ACHN): 98%
- activity at 10 µM [1]: 96.6%
- activity on all 60 cancer cell lines tested (in words) [1]: weak activity
- % growth at 10 µM (SK-OV-3): 121%

SMILES: CN(C)c1ccc(-c2nc(S)nc(N)c2C(=N)NN=Cc2ccccc2)cc1 [Compound 4a, 4-Amino-6-[4-(dimethylamino)phenyl]-2-mercapto-N'-[phenylmethylene] pyrimidine-5-carboximidohydrazide]
- cell growth percent at 10 µM (NCI/ADR-RES): 104%
- activity at 10 µM (SK-MEL-5): 103%
- % cell growth at 10 µM (BT-549): 103%
- % growth at 10 µM (A498): 107%
- percent cell growth at 10 µM (PC-3): 85.1%
- activity at 10 µM (MDA-MB-435): 99.4%
- % growth at 10 µM (SF-539): 106%
- % growth at 10 µM (NCI-H522): 99.4%
- % cell growth at 10 µM (SK-MEL-28): 105%
- % growth at 10 µM (OVCAR-3): 102%
- % cell growth at 10 µM (TK-10): 105%
- activity at 10 µM (HCT-15): 99.9%
- % growth at 10 µM (RPMI-8226): 89.8%
- % cell growth at 10 µM (SF-295): 104%
- % growth at 10 µM (K-562): 107%
- activity at 10 µM (NCI-H23): 104%
- % growth at 10 µM (HOP-62): 109%
- activity at 10 µM (IGROV1): 111%
- % growth at 10 µM (DU-145): 104%
- % growth at 10 µM (786-0): 102%
- % growth at 10 µM (SNB-75): 101%
- % growth at 10 µM (COLO 205): 140%
- percent cell growth at 10 µM (SR): 104%
- activity at 10 µM (SF-268): 104%
- % growth at 10 µM (HL-60(TB)): 94.7%
- % growth at 10 µM (HT29): 101%
- percent cell growth at 10 µM (OVCAR-5): 111%
- % growth at 10 µM (SN12C): 103%
- % growth at 10 µM (HCC-2998): 113%
- % growth at 10 µM (U251): 111%
- % growth at 10 µM (MDA-MB-231/ATCC): 109%
- % growth at 10 µM (UACC-62): 97.9%
- activity at 10 µM (T-47D): 105%
- % growth at 10 µM (KM12): 107%
- % growth of cells at 10 µM (OVCAR-8): 115%
- activity at 10 µM (MOLT-4): 106%
- activity at 10 µM (HS 578T): 113%
- percent cell growth at 10 µM (MDA-MB-468): 117%
- % growth at 10 µM (MALME-3M): 105%
- % growth at 10 µM (HOP-92): 114%
- % cell growth at 10 µM (UO-31): 75%
- % growth at 10 µM (CAKI-1): 99%
- activity at 10 µM (LOX IMVI): 98.3%
- % growth at 10 µM (NCI-H226): 98.6%
- % growth at 10 µM (A549/ATCC): 103%
- activity at 10 µM (MCF7): 93.1%
- % growth at 10 µM (M14): 106%
- % growth at 10 µM (OVCAR-4): 101%
- % growth at 10 µM (SK-MEL-2): 108%
- % cell growth at 10 µM (EKVX): 96.3%
- percent cell growth at 10 µM (UACC-257): 106%
- % cell growth at 10 µM (CCRF-CEM): 82%
- activity at 10 µM (HCT-116): 110%
- activity at 10 µM (SNB-19): 102%
- activity at 10 µM (NCI-H460): 104%
- % growth at 10 µM (SW-620): 108%
- % growth at 10 µM (ACHN): 101%
- activity at 10 µM [1]: 104%
- activity on all 60 cancer cell lines tested (in words) [1]: weak activity
- % growth at 10 µM (SK-OV-3): 118%
